Consider 21 compounds from US20090131431A1, “Pyrazolo[3,4-b]pyridine compounds, and their use as a PDE4 inhibitors” (priority 2005, published 2009).

For experiment [1], the system named is humans with histories of allergic rhinitis. The note with it: orally 500 ug once daily for 9 days; intranasal allergen provocation (pollen extracts); cited from earlier work.
A further experiment concerns COPD patients. Conditions: cited from earlier work.
Experiment [2] deals with atopic dermatitis patients. The note with it: cited from earlier work.
The target in experiment [3] is T1, PDE4B (human recombinant) (Homo sapiens, UniProt Q07343).
T1 construct: made in house
T1 sequence (Q07343 1-564 isoform Q07343-2): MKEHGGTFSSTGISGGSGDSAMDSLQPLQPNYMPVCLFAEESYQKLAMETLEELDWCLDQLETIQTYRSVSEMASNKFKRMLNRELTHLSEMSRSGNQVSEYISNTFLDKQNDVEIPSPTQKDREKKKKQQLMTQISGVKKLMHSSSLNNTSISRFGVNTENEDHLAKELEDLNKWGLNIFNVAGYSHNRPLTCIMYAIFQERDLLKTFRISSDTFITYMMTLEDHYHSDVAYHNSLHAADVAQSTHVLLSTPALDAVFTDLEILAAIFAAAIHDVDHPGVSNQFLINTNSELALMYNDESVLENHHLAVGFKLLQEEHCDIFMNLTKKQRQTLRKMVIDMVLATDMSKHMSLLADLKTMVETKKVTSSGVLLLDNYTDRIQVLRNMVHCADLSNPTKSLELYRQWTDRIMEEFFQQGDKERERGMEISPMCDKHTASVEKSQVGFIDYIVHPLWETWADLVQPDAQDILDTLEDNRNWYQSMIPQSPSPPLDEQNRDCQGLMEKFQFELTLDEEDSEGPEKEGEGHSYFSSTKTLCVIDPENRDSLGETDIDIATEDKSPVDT
The experiment can be described thus: Inhibition of PDE4B activity: SPA and/or Fluorescence Polarisation (FP) assay. The class given is biochemical. Conditions: one reading (n=1) or average of 2 or more readings, read-out: PDE4B pIC50 (±about 0.5) (converted). Summed up:
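Human recombinant PDE4B activity measured by SPA with [3H]cAMP at about 10 nM, 1 h at ambient temperature, enzyme set for ≤20% substrate hydrolysis, or by IMAP FP with Fl-cAMP at about 40 nM, 40 min at ambient temperature under linear conditions. Inhibition curves fitted; values reported as pIC50.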
(Fluorescence polarisation rises when a labelled molecule tumbles more slowly, as on binding a larger partner.)

Counter-ions that a name gives are not always drawn.

For `O=C(Nc1c(Cl)cncc1Cl)c1ccc(OC(F)F)c(OCC2CC2)c1` [roflumilast], in experiment [1], the “rhinal airflow during the treatment period (compared to placebo)” value was “effective in improving rhinal airflow”. The “FEV1 in COPD patients” value in the experiment on COPD patients (human, in vivo) is reported as “appears to show small improvements in FEV1”.

In the case of `COc1ccc(C2CNC(=O)NC2)cc1O[C@H]1C[C@@H]2CC[C@H]1C2` [CP80,633], in experiment [2] (0.5% ointment, twice daily topical application), the “inflammatory parameters in atopic dermatitis patients” value is given as “reductions of inflammatory parameters”. For `Nc1nc2c([nH]1)c(=O)n(CC1CC1)c(=O)n2CC1CC1` [cipamfylline], the “effectiveness in the treatment of atopic dermatitis patients” value in experiment [2] (0.15% cream, vs vehicle and hydrocortisone 17-butyrate (0.1%) cream) is on record as “significantly more effective than vehicle, but significantly less effective than hydrocortisone 17-butyrate (0.1%) cream”. As to `COc1ccc([C@]2(C#N)CC[C@@H](C(=O)O)CC2)cc1OC1CCCC1` [cilomilast], the “forced expiratory volume in 1s (FEV1) in COPD patients” value in the experiment with COPD patients (15 mg orally twice daily) is “appears to improve forced expiratory volume in 1s (FEV1)”. Moreover, the “antiinflammatory effects in COPD patients” value in the experiment with COPD patients (human, in vivo) is listed as “appears to have antiinflammatory effects”. As for `CCn1ncc2c(NC3CCOCC3)c(CNC(=O)c3cnc(C)cn3)c(C(F)(F)F)nc21` [Example 348, N-{[1-Ethyl-4-(tetrahydro-2H-pyran-4-ylamino)-6-(trifluoromethyl)-1H-pyrazolo[3,4-b]pyridin-5-yl]methyl}-5-methyl-2-pyrazinecarboxamide], in experiment [3], the IC50 is 0.126 to 1 nM. Consider `CCc1nc2c(cnn2CC)c(NC2CCOCC2)c1CNC(=O)c1ccccc1` [Example 196, N-{[1,6-diethyl-4-(tetrahydro-2H-pyran-4-ylamino)-1H-pyrazolo[3,4-b]pyridin-5-y]methyl}benzamide], for which the IC50 in experiment [3] is 0.126 to 1 nM. For `CCn1ncc2c(NC3CCOCC3)c(CNC(=O)c3ccc(C(=O)NC)cc3)c(C)nc21` [Example 283, N-{[1-ethyl-6-methyl-4-(tetrahydro-2H-pyran-4-ylamino)-1H-pyrazolo[3,4-b]pyridin-5-yl]methyl}-N′-methyl-1,4-benzenedicarboxamide], the IC50 in experiment [3] was 0.126 to 1 nM. As for `CCn1ncc2c(NC3CCOCC3)c(CNC(=O)c3ccc4c(c3)CCCS4(=O)=O)c(C)nc21` [Example 287, N-{[1-ethyl-6-methyl-4-(tetrahydro-2H-pyran-4-ylamino)-1H-pyrazolo[3,4-b]pyridin-5-yl]methyl}-3,4-dihydro-2H-1-benzothiopyran-6-carboxamide 1,1-dioxide], the IC50 in experiment [3] is 0.126 to 1 nM. `CCc1nc2c(cnn2CC)c(NC2CCOCC2)c1CNC(=O)c1ccccc1O` [Example 250, N-{[1,6-diethyl-4-(tetrahydro-2H-pyran-4-ylamino)-1H-pyrazolo[3,4-b]pyridin-5-yl]methyl}-2-hydroxybenzamide]: the IC50 in experiment [3] is 0.01 to 0.1 nM. `CCn1ncc2c(NC3CCOCC3)c(CNC(=O)c3ccc(C(C)(C)C)cc3O)c(C)nc21` [Example 285, 4-(1,1-dimethylethyl)-N-{[1-ethyl-6-methyl-4-(tetrahydro-2H-pyran-4-ylamino)-1H-pyrazolo[3,4-b]pyridin-5-yl]methyl}-2-hydroxybenzamide]: the IC50 in experiment [3] was 0.01 to 0.1 nM. Regarding `CCn1ncc2c(NC3CCOCC3)c(CNC(=O)c3cnc(C)s3)c(C(F)(F)F)nc21` [Example 349, N-{[1-Ethyl-4-(tetrahydro-2H-pyran-4-ylamino)-6-(trifluoromethyl)-1H-pyrazolo[3,4-b]pyridin-5-yl]methyl}-2-methyl-1,3-thiazole-5-carboxamide], in experiment [3], the IC50 was 0.126 to 1 nM.

For `CCc1nc2c(cnn2CC)c(NC2CCOCC2)c1CNC(=O)c1cccc2c1CCC2` [Example 189, N-{[1,6-diethyl-4-(tetrahydro-2H-pyran-4-ylamino)-1H-pyrazolo[3,4-b]pyridin-5-yl]methyl}-2,3-dihydro-1H-indene-4-carboxamide], the IC50 in experiment [3] is 0.126 to 1 nM. For `CCn1ncc2c(NC3CCN(C(N)=O)CC3)c(CNC(=O)c3ccc(N4CCCCC4)cc3)c(C)nc21` [Example 269, 4-({1-ethyl-6-methyl-5-[({[4-(1-piperidinyl)phenyl]carbonyl}amino)methyl]-1H-pyrazolo[3,4-b]pyridin-4-yl}amino)-1-piperidinecarboxamide], the IC50 in experiment [3] is 0.01 to 0.1 nM. For `CCc1nc2c(cnn2CC)c(NC2CCOCC2)c1CNC(=O)Nc1ccccc1` [Example 203, N-{[1,6-diethyl-4-(tetrahydro-2H-pyran-4-ylamino)-1H-pyrazolo[3,4-b]pyridin-5-yl]methyl}-N′-phenylurea], the IC50 in experiment [3] was 0.126 to 1 nM. Still for that read-out and setting: the figure for `CCc1nc2c(cnn2CC)c(NC2CCOCC2)c1CNC(=O)c1ccc(C(N)=O)cc1` [Example 253, N-{[1,6-diethyl-4-(tetrahydro-2H-pyran-4-ylamino)-1H-pyrazolo[3,4-b]pyridin-5-yl]methyl}-1,4-benzenedicarboxamide] is 0.01 to 0.1 nM; for `CCc1nc2c(cnn2CC)c(NC2CCN(C(N)=O)CC2)c1CN1Cc2ccccc2C1=O` [Example 212, [4-({1,6-diethyl-5-[(1-oxo-1,3-dihydro-2H-isoindol-2-yl)methyl]-1H-pyrazolo[3,4-b]pyridin-4-yl}amino)-1-piperidinecarboxamide], Formate] it is 0.01 to 0.1 nM; for `CCn1ncc2c(NC3CCOCC3)c(CNC(=O)c3cccc(N4CCCC4=O)c3)c(C)nc21` [Example 216, N-{[1-ethyl-6-methyl-4-(tetrahydro-2H-pyran-4-ylamino)-1H-pyrazolo[3,4-b]pyridin-5-yl]methyl}-3-(2-oxo-1-pyrrolidinyl)benzamide] it is 0.126 to 1 nM. Regarding `CCc1nc2c(cnn2CC)c(NC2CCOCC2)c1CNC(=O)c1ccc(C#N)nc1` [Example 325, 6-cyano-N-{[1,6-diethyl-4-(tetrahydro-2H-pyran-4-ylamino)-1H-pyrazolo[3,4-b]pyridin-5-yl]methyl}-3-pyridinecarboxamide], the IC50 in experiment [3] is 0.126 to 1 nM. Regarding `CCc1nc2c(cnn2CC)c(NC2CCOCC2)c1CNC(=O)c1ccc(C2CCCC2)cc1` [Example 184, 4-cyclopentyl-N-{[1,6-diethyl-4-(tetrahydro-2H-pyran-4-ylamino)-1H-pyrazolo[3,4-b]pyridin-5-yl]methyl}benzamide], in experiment [3], the IC50 is 0.01 to 0.1 nM. Consider `CCn1ncc2c(NC3CCOCC3)c(CNC(=O)c3cnc(C)cn3)c(C)nc21` [Example 228, N-{[1-ethyl-6-methyl-4-(tetrahydro-2H-pyran-4-ylamino)-1H-pyrazolo[3,4-b]pyridin-5-yl]methyl}-5-methyl-2-pyrazinecarboxamide], for which, in experiment [3], the IC50 was 0.126 to 1 nM. Turning to `CCc1nc2c(cnn2CC)c(NC2CCOCC2)c1CNC(=O)c1cnco1` [Example 239, N-{[1,6-diethyl-4-(tetrahydro-2H-pyran-4-ylamino)-1H-pyrazolo[3,4-b]pyridin-5-yl]methyl}-1,3-oxazole-5-carboxamide], in experiment [3], the IC50 is 0.126 to 1 nM.
